Data from US20180064702A1 (Teva Pharmaceutical Industries, Ltd., priority 2013, published 2018).

Experiments:
[1] = test system: patients afflicted with a progressive form of multiple sclerosis (PPMS, SPMS, PRMS); test: Phase III clinical trial of oral laquinimod in progressive forms of multiple sclerosis (Example 1); type: in vivo, human; details: daily oral 0.6 mg, 0.9 mg, 1.2 mg and 1.8 mg
Excerpt: 3-5 Years (2-4 years recruitment duration). Progressive Forms of Multiple Sclerosis, including Primary Progressive Multiple sclerosis (PPMS) and Secondary Progressive Multiple Sclerosis (SPMS). […] Matching placebo for laquinimod arm: matching placebo for laquinimod administered once daily. Approximately 140-240 sites and approximately 1300-2300 subjects. Inclusion Criteria • 1. Subjects must be 25-65 years old. • 2. Subjects must have a confirmed and documented diagnosis of Primary Progressive (according to McDonald), Progressive-Relapsing or Secondary Progressive (clinical definition, without relapses in the previous year) Multiple Sclerosis disease course. • 3. Subjects must be ambulatory with converted Kurtzke EDSS score of 3.0-6.5. • 4. Subjects must have a Pyramidal Functional Systems (FS) score of ≧2. • 5. Subjects must have a threshold Timed 25-Foot Walk ([…]) score. Exclusion Criteria • 1. Subjects with RRMS. • 2. Subjects with clinically significant or unstable medical or surgical condition that would preclude safe and complete study participation, as determined by medical history, physical examination, ECG, laboratory tests or chest X-ray. • 3. […] Confirmed disability progression at 3 and 6 months. This study assesses the efficacy of various daily doses of laquinimod as compared to placebo in multiple sclerosis subjects.

[2] = test system: genes related to antigen presentation and corresponding inflammatory pathways; details: mainly via the NFkB pathway; cited from earlier work
[3] = test system: patients having Relapsing-Remitting Multiple Sclerosis (RRMS); details: cited from earlier work
[4] = test system: patients afflicted with PPMS; test: Phase II clinical trial of laquinimod in Primary Progressive Multiple Sclerosis subjects (Example 2); type: in vivo, human; details: daily oral 0.6 mg, 1.0 mg and 1.5 mg
Description: Study Duration • Screening phase: Up to 1 month • Treatment Phase: At least 15 months
Subjects with Primary Progressive Multiple Sclerosis (approximately 500 subjects in approximately 120 centers, with about 125 subjects per study arm).
Investigational Product Route and Dosage Form • 1. […] Placebo arm: Three capsules containing placebo (0.5/0.6 mg matching) to be administered orally once daily.
Eligible subjects are randomized in a 1:1:1:1 ratio into one of the following treatment arms: • 1. […] Matching placebo
Subjects that stopped treatment with the study drug before the completion of Month 12 visit are considered Early Treatment Discontinuation (ETD) subjects. ETD subjects continue follow-up according to scheduled visits (until Month 12).
Subjects have the following study visits: Screening visit (−1 Month), Baseline visit (Month 0), and Months 1, 2, 3, 6, 9, 12, and every three months until study termination.
The following assessments are performed at the specified time points: • 1. Vital signs are measured at each study visit. • 2. A physical examination is performed at months −1, 0, 1, 3, 6 and every 6 months thereafter, ETD (if applicable), and until study completion. • 3. The following safety clinical laboratory tests are performed: • a. Complete blood count (CBC) with differential at all scheduled visits. • b. Serum chemistry (including electrolytes, liver enzymes, urea, creatinine, glucose, total protein, albumin, direct and total bilirubin, Creatinephosphokinase (CPK), serum conventional C-reactive protein (CRP), fibrinogen and pancreatic amylase)—at all scheduled visits. Calculated Glomerular Filtration Rate (GFR) at screening and prior to each MRI scan. • c. Lipid profile (total cholesterol, HDL, LDL, triglycerides)—at baseline (month 0) and every 12 months until completion/ETD. • d. Serum TSH, T3 and Free T4 at baseline (month 0), month 6 and every 12 months until completion/ETD. • e. Urinalysis at the screening visit. • f. Serum human choriogonadotropin beta (β-hCG) in women of child-bearing potential is performed at each scheduled study visit. • g. Urine β-hCG test is performed in women of child-bearing potential at baseline (month 0) and at each scheduled study visit thereafter. • h. Starting after visit Month 3 a β-hCG test is performed in women of child-bearing potential every 28 (±2) days. In case of suspected pregnancy the study drug is discontinued. • 4. Additional blood for analysis of serology for Hepatitis B and C viruses at baseline visit • 5. […] ECG is performed at months −1 (screening), 0 (baseline, three recordings 10 min apart, before first dose), 1, 2, 3, 6, 12 and every 12 months until completion/ETD. • 8. Chest X-ray is performed at month −1, (if not performed within 6 months prior to the screening visit). • 9. Adverse Events (AEs) are monitored throughout the study. • 10. Concomitant Medications are monitored throughout the study. • 11. All subjects—conventional MRI scans with gadolinium at Months 0 (14 to 7 days before Baseline), and 12. In case of ETD, or completion, an additional MRI is performed, provided no study MRI was done within the previous 3 months. • 12. In case of steroid treatment, study MRI is performed before such treatment or delayed to allow a minimum of 14 days but not more than 28 days from the completion of the steroid course. • 13. All subjects—MRI including 3D T1-w acquisitions of the brain and cervical cord, to measure whole brain volume, cord atrophy, thalamic atrophy, cortical atrophy and white matter (WM) atrophy at Months 0 (Baseline), 12 or ETD (if applicable). • 14. Neurological evaluations, including Expanded Disability Status Scale (EDSS), Timed 25-Foot Walk (T25FW)/9-Hole Peg test (9HPG), Ambulation Index (AI), Functional systems (FS), are performed at months −1, 0, and every 3 months thereafter, ETD visit (if applicable) and until completion visit. • 15. […]

[5] = in vivo; cited from earlier work

For `CCN(C(=O)c1c(O)c2c(Cl)cccc2n(C)c1=O)c1ccccc1` [laquinimod], which “accumulation of physical disability” value ([1]; PPMS, vs placebo control group) is on record?
The value was “reduces the accumulation of physical disability”.

What about the “accumulation of physical disability” value ([1]; PPMS, vs the patient at baseline) of the same compound?
The value was “reduces the accumulation of physical disability”.

And the “accumulation of physical disability” value ([1]; PRMS, vs placebo control group)?
Its value is “reduces the accumulation of physical disability”.

And the “accumulation of physical disability” value ([1]; PRMS, vs the patient at baseline)?
The value was “reduces the accumulation of physical disability”.

What about the “accumulation of physical disability” value ([1]; SPMS, vs placebo control group) of the same compound?
Its value is “reduces the accumulation of physical disability”.

What about the “accumulation of physical disability” value ([1]; SPMS, vs the patient at baseline) of the same compound?
Its value is “reduces the accumulation of physical disability”.

And the “accumulation of physical disability” value ([1]; progressive form of multiple sclerosis, vs placebo control group)?
Its value is “reduces the accumulation of physical disability”.

And the “accumulation of physical disability” value ([1]; progressive form of multiple sclerosis, vs the patient at baseline)?
The value was “reduces the accumulation of physical disability”.

What about the “suppression of genes related to antigen presentation” value [2] of the same compound?
The value was “induced suppression of genes related to antigen presentation and corresponding inflammatory pathways”.

What about the “EDSS progression of disability” value ([3]; RRMS patients) of the same compound?
Its value is “consistently reduced EDSS progression of disability”.

And the brain atrophy ([3]; RRMS patients)?
The brain atrophy was “reduced brain atrophy”.

And the “non-conventional MRI metrics” value ([3]; RRMS patients)?
The value was “increased non-conventional MRI metrics suggestive of preservation of tissue architecture”.

What about the “safety and tolerability profile” value ([3]; two phase III trials, relapsing-remitting multiple sclerosis patients) of the same compound?
Its value is “favorable safety and tolerability profile”.

And the “accumulation of physical disability” value ([4]; vs placebo control group)?
Its value is “reduces the accumulation of physical disability”.

What about the “brain atrophy (percentage change in brain volume from Baseline to month 12)” value ([4]; vs placebo control group) of the same compound?
The value was “reduces brain atrophy”.

And the cognitive function ([4]; vs placebo control group)?
The cognitive function was “improves cognitive function”.

And the “cumulative number of new T2 lesions” value ([4]; vs placebo control group)?
Its value is “reduces the cumulative number of new T2 lesions”.

What about the “accumulation of physical disability” value ([4]; vs the patient at baseline) of the same compound?
The value was “reduces the accumulation of physical disability”.

And the “brain atrophy (percentage change in brain volume from Baseline to month 12)” value ([4]; vs the patient at baseline)?
The value was “reduces brain atrophy”.

What about the cognitive function ([4]; vs the patient at baseline) of the same compound?
The cognitive function was “improves cognitive function”.

And the “cumulative number of new T2 lesions” value ([4]; vs the patient at baseline)?
The value was “reduces the cumulative number of new T2 lesions”.

What about the oral bioavailability [5] of the same compound?
The oral bioavailability was “high”.
